Experimental findings from patent US10004702B2, “Linear guanidine derivatives, methods of preparation and uses thereof” (LEAD DISCOVERY SIENA S.R.L., priority 2014, dated 2018) are described below.

In data set [1] the test system is Burkholderia cepacia RII. Description: Bactericidal activity (MBC). It is filed as cell-based.
In data set [2] the test system is Enterococcus faecalis ATCC 19433. Description: Bactericidal activity (MBC). It is filed as cell-based. The following applies: ATCC19433.
The test system of data set [3] is Klebsiella pneumoniae 081R. Description: Bactericidal activity (MBC). The class given is cell-based.
Data set [4] relates to Klebsiella pneumoniae 167R. The data set is described as follows: MIC against resistant clinical isolates. The class given is cell-based. The following applies: resistance profile PDR. On the procedure:
(§1) Bacterial strains were obtained from the ATCC or CCUG culture collections or present in the authors' collection of clinical isolates. Compounds were re-suspended in dimethyl sulfoxyde (DMSO) at a final concentration of 10 mg/ml and subsequently diluted in the culture medium. The minimum inhibitory concentrations (MICs) of the compounds of the invention were determined using the microdilution broth method using Mueller-Hinton broth as recommended by the Clinical Laboratory Standards Institute (CLSI [11]). Bacterial inoculum was 5×10^4 CFU/well. MICs were recorded after 18-24 hours incubation at 35-37° C.
(§2) The Antibacterial activity of compound 28 was also tested on a panel of Gram-negative and Gram-positive clinical isolates, showing various antimicrobial susceptibility profiles (Table 4). The class of drugs for which the isolate was resistant to is indicated in column 2 (PEN, penicillins; ES-CEPH, expanded-spectrum cephalosporins; CARB, carbapenems; AZT; aztreonam; AG, aminoglycosides; FQ, fluoroquinolones; SXT, trimethoprim/sulfamethoxazole; FOS, fosfomycin; GLY, glycopeptides; LNZ, linezolid; COL-R, colistin resistant; COL-S colistin sensitive; PDR, poly-drug resistant).

In data set [5] the test system is Klebsiella pneumoniae 207-1. Description: MIC against resistant clinical isolates. It is filed as cell-based. Conditions: 2071, COL-S. On the procedure: as §1, §2
In data set [6] the test system is Klebsiella pneumoniae 207-2. Description: MIC against resistant clinical isolates. The class given is cell-based. The following applies: 2072, COL-R. On the procedure:
as §1, §2

Data set [7] deals with Klebsiella pneumoniae 7023. The data set is described as follows: MIC against resistant clinical isolates. The following applies: resistance profile PEN, ES-CEPH, CARB, AG, FQ, SXT. The class given is cell-based. On the procedure:
as §1, §2

The subject of data set [8] is Klebsiella pneumoniae B1. The data set is described as follows: MIC against resistant clinical isolates. It is filed as cell-based. The following applies: COL-S. On the procedure: as §1, §2
Data set [9] has as its system Klebsiella pneumoniae BO1. The data set is described as follows: MIC against resistant clinical isolates. The class given is cell-based. The following applies: COL-S. On the procedure: as §1, §2
Data set [10] relates to Klebsiella pneumoniae KP0787. Description: MIC against resistant clinical isolates. Conditions: resistance profile PDR. It is filed as cell-based. On the procedure:
as §1, §2

Data set [11] relates to Pseudomonas aeruginosa 101/1477. The data set is described as follows: MIC against resistant clinical isolates. It is filed as cell-based. The following applies: resistance profile PEN, ES-CEPH, CARB, AG. On the procedure: as §1, §2
Data set [12] deals with Pseudomonas aeruginosa 14X-34. The data set is described as follows: MIC against resistant clinical isolates. The class given is cell-based. The following applies: 14X34, resistance profile PDR. On the procedure:
as §1, §2

Data set [13] deals with Pseudomonas aeruginosa VR143/97. Description: MIC against resistant clinical isolates. The class given is cell-based. The following applies: resistance profile PEN, ES-CEPH, CARB, MON, AG, FQ. On the procedure: as §1, §2
Data set [14] has as its system Staphylococcus aureus ATCC 700699 (VanA). Description: MIC against resistant clinical isolates. The class given is cell-based. Conditions: ATCC700699, resistance profile GLY. On the procedure:
as §1, §2

Data set [15] deals with Staphylococcus haemolyticus SI-6/2011. Description: MIC against resistant clinical isolates. The class given is cell-based. Conditions: SI6/2011, resistance profile AG. On the procedure:
as §1, §2

Data set [16] can be described thus: Parallel Artificial Membrane Permeability Assay (PAMPA). It is filed as in vitro ADME. The following applies: pH 7.4, 5 h at room temperature, read-out: apparent permeability (Papp). On the procedure:
Donor solution (0.5 mM) was prepared by diluting 1 mM dimethylsulfoxide (DMSO) compound stock solution using tris-HCl buffer (50 mM) at pH 7.4. Filters were coated with 5 μL of a 1% (w/v) dodecane solution of phosphatidylcholine. Donor solution (150 μL) was added to each well of the filter plate. To each well of the acceptor plate were added 300 μL of solution (50% DMSO in phosphate buffer). Compound 28 was tested in three different plates on different days. The sandwich was incubated for 5 h at room temperature under gentle shaking. After the incubation time, the plates were separated, and samples were taken from both receiver and donor sides and analyzed using LC with UV detection at 210 and 254 nm. LC analysis were performed with a Perkin-Elmer (series 200) instrument equipped with an UV detector (Perkin-Elmer […], UV/vis Detector). Chromatographic separation were conducted using a Polaris C18 column (150-4.6 mm, 5 μm particle size) at a flow rate of 0.8 mL min-1 with a mobile phase composed of 50% CH3CN/50% H2O-formic acid 0.1%. Permeability (Papp) was calculated according to equation 1, obtained from Sugano [12] and Wohnsland [13] equation with some modification to obtain values in cm/s. […]
Background: PAMPA measures passive passage across an artificial lipid membrane.

Data set [17] concerns human liver microsomial enzymes. Description: Metabolic stability assay. The class given is in vitro ADME. Conditions: human liver microsomes, 1 h of incubation at 37° C., 50 μM. On the procedure: The reaction was stopped by cooling in ice and adding 1.0 mL of acetonitrile. The reaction mixtures were then centrifuged, and the parent drug and metabolites were subsequently determined by LC-UV-MS as reported for the solubility assay

Data set [18] can be described thus: Water solubility. Conditions: thermodynamic from solid, room temperature, LC-UV-MS. The class given is physicochemical. On the procedure: Solid compound 28 (1.01 mg) was added to 1 mL of water. The sample was shaken in a shaker bath at room temperature for 24 h. The suspension was filtered through a 0.45-μm nylon filter (Acrodisc), and the solubilised compound determined by LC-UV-MS assay. The determination was performed in triplicate. For the quantification was used an LC-UV-MS system consisted of a Varian apparatus (Varian Inc) including a vacuum solvent degassing unit, two pumps (212-LC), a Triple Quadrupole MSD (Mod. 320-LC) mass spectrometer with ES interface and Varian MS Workstation System Control Vers. 6.9 software. Chromatographic separation was obtained using a Pursuit C18 column (50×2.0 mm) (Varian) with 3 μm particle size and gradient elution: eluent A being CH3CN and eluent B consisting of an aqueous solution of formic acid (0.1%).
The flow rate was 0.4 ml/min and injection volume was 20 μL. The instrument operated in positive mode and parameters were: detector 1850 V, drying gas pressure 25.0 psi, desolvation temperature 300.0° C., nebulizing gas 45.0 psi, needle 5000 V and shield 600 V. Nitrogen was used as nebulizer and drying gas. Collision induced dissociation was performed using Argon as the collision gas at a pressure of 1.8 mTorr in the collision cell, the collision energy was set to 149 eV. UV lamp was set to 210 nm. […]

≈ marks a conversion by molar mass, not a printed value.

`N=C(N)NCCCCCCCCN(CCCCCCCCNC(=N)NCC1CC1)C(=O)N(CCCCCCCCNC(=N)N)CCCCCCCCNC(=N)NCC1CC1` [Compound 28, 1,3-bis(8-(3-(cyclopropylmethyl)guanidino)octyl)-1,3-bis(8-guanidinooctyl)urea]: the MBC (in general, the smallest concentration meeting the test's criterion for killing) in [1] was 8 µg/mL (≈ 9.46 µM); in data set [2], less than 0.125 µg/mL; in [3] it was 2 µg/mL (≈ 2.37 µM). Further, the MIC (as a rule, the lowest concentration found to suppress growth) in [4] turned out to be 4 µg/mL (≈ 4.73 µM); in data set [5], 4 µg/mL (≈ 4.73 µM); in data set [6], 8 µg/mL (≈ 9.46 µM); in [7] it was 2 µg/mL (≈ 2.37 µM); in data set [8], 4 µg/mL (≈ 4.73 µM); in data set [9] it was 4 µg/mL (≈ 4.73 µM). Also, the MIC in data set [10] was determined as 1 µg/mL (≈ 1.18 µM); in data set [11] it was 8 µg/mL (≈ 9.46 µM); in [12], 8 µg/mL (≈ 9.46 µM); in [13] it was 8 µg/mL (≈ 9.46 µM); in data set [14], 4 µg/mL (≈ 4.73 µM); in data set [15] it was 2 µg/mL (≈ 2.37 µM). Moreover, the Papp (commonly a coefficient for how fast a substance crosses the barrier) at 5 h, 0.5 mM in data set [16] amounted to 1.6 ×10⁻⁶ cm/s. In data set [17], this compound displayed a metabolic stability of 99.9%. The concentration in solution in data set [18] (solubility at 24 h) was 292 µg/mL (≈ 345 µM).
